Like-named read-outs stand apart in the source and are kept apart here.
Columns and labels:
Assay type in all cases: in vivo
[1] = test system: chamomile (scentless chamomile, Matricaria inodora); experiment: Test E pre-/postemergence plant response; details: Tripleurospermum inodorum, scale 0 to 100, read-out: Plant response rating, Chamomile; for pest or weed control at 16 g/ha: 16 g ai/ha; for pest or weed control at 31 g/ha: 31 g ai/ha; for pest or weed control at 62 g/ha: 62 g ai/ha; for pest or weed control at 125 g/ha: 125 g ai/ha
Method in brief: (§1)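 Pre-emergence: seeds sown in silt loam soil and sprayed with test chemicals in a non-phytotoxic solvent/surfactant mix. Post-emergence: plants at 2–18 cm (1- to 4-leaf stage) in peat/vermiculite medium treated with the same formulation. Visual rating versus controls after 7–21 days, 0 (no effect) to 100 (complete control).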

[2] = test system: wild mustard (Sinapis arvensis); experiment: Test E pre-/postemergence plant response; details: Brassica, scale 0 to 100, read-out: Plant response rating, Mustard, Wild; for pest or weed control at 16 g/ha: 16 g ai/ha; for pest or weed control at 31 g/ha: 31 g ai/ha; for pest or weed control at 62 g/ha: 62 g ai/ha; for pest or weed control at 125 g/ha: 125 g ai/ha
Method in brief: as §1

[3] = test system: pigweed (Amaranthus retroflexus); experiment: Test E pre-/postemergence plant response; details: scale 0 to 100, read-out: Plant response rating, Pigweed; for pest or weed control at 16 g/ha: 16 g ai/ha; for pest or weed control at 31 g/ha: 31 g ai/ha; for pest or weed control at 62 g/ha: 62 g ai/ha; for pest or weed control at 125 g/ha: 125 g ai/ha
Method in brief: as §1

[4] = test system: green foxtail (Setaria viridis); experiment: Test E pre-/postemergence plant response; details: scale 0 to 100, read-out: Plant response rating, Foxtail, Green; for pest or weed control at 16 g/ha: 16 g ai/ha; for pest or weed control at 31 g/ha: 31 g ai/ha; for pest or weed control at 62 g/ha: 62 g ai/ha; for pest or weed control at 125 g/ha: 125 g ai/ha
Method in brief: as §1

[5] = test system: transplanted rice seedlings (Oryza sativa cv. ‘Japonica—M202’); experiment: Test G flooded paddy rice/weed plant response; details: Flood, 21 days, scale 0 to 100 (0 no effect, 100 complete control)
Text: (§2) Three plastic pots (ca. 16-cm diameter) per rate were partially filled with sterilized Tama silt loam soil comprising a 35:50:15 ratio of sand, silt and clay and 2.6% organic matter. Separate plantings for each of the three pots were as follows. Seeds from the U.S. of monochoria (Monochoria vaginalis), small-flower umbrella sedge (Cyperus difformis), hardstem bulrush (Scirpus juncoides), and redstem (purple redstem, Ammannia coccinea), were planted into one 16-cm pot for each rate. Seeds from the U.S. of rice flatsedge (Cyperus iria), bearded sprangletop (Leptochloa fascicularis), one stand of 9 or 10 water seeded rice seedlings (Indica rice, Oryza sativa), and two stands of 3 or 4 transplanted rice seedlings (Oryza sativa cv. ‘Japonica—M202’) were planted into one 16-cm pot for each rate. Seeds from the U.S. of bamyardgrass (Echinochloa crus-galli), and late watergrass (Echinochloa oryzicola) were planted into one 16-cm pot for each rate. Plantings were sequential so that crop and weed species were at the 2.0 to 2.5-leaf stage at time of treatment.
(§3) Potted plants were grown in a greenhouse with day/night temperature settings of 30/27° C., and supplemental balanced lighting was provided to maintain a 16-hour photoperiod. Test pots were maintained in the greenhouse until test completion.
(§4) At time of treatment, test pots were flooded to 3 cm above the soil surface, treated by application of test compounds directly to the paddy water, and then maintained at that water depth for the duration of the test. Effects of treatments on rice and weeds were visually evaluated by comparison to untreated controls after 21 days. Plant response ratings, summarized in Table G, are based on a scale of 0 to 100 where 0 is no effect and 100 is complete control. A dash (-) response means no test result.

[6] = test system: late watergrass (Echinochloa oryzicola); experiment: Test G flooded paddy rice/weed plant response; details: Flood, 21 days, scale 0 to 100 (0 no effect, 100 complete control)
Text: as §2, §3, §4

[7] = test system: barnyardgrass (Echinochloa crus-galli); experiment: Test G flooded paddy rice/weed plant response; details: Flood, 21 days, scale 0 to 100 (0 no effect, 100 complete control)
Text: as §2, §3, §4

[8] = test system: small-flower umbrella sedge (Cyperus difformis); experiment: Test G flooded paddy rice/weed plant response; details: Flood, 21 days, scale 0 to 100 (0 no effect, 100 complete control)
Text: as §2, §3, §4

[9] = test system: rice flatsedge (Cyperus iria); experiment: Test G flooded paddy rice/weed plant response; details: Flood, 21 days, scale 0 to 100 (0 no effect, 100 complete control)
Text: as §2, §3, §4

[10] = test system: water seeded rice seedlings (Indica rice, Oryza sativa); experiment: Test G flooded paddy rice/weed plant response; details: Flood, 21 days, scale 0 to 100 (0 no effect, 100 complete control)
Text: as §2, §3, §4

Structure (SMILES): FC(F)c1cc(-c2ccccc2Oc2ncc(Cl)cn2)no1 [Compound 35, 5-chloro-2-[2-[5-(difluoromethyl)-3-isoxazolyl]phenoxy]pyrimidine]
- pest or weed control at 16 g/ha ([1]; post-emergence, Postemergence): 5%
- pest or weed control at 31 g/ha ([1]; post-emergence, Postemergence): 5%
- pest or weed control at 62 g/ha ([1]; post-emergence, Postemergence): 5%
- pest or weed control at 125 g/ha ([1]; post-emergence, Postemergence): 10%
- pest or weed control at 16 g/ha ([1]; pre-emergence, Preemergence): 5%
- pest or weed control at 31 g/ha ([1]; pre-emergence, Preemergence): 10%
- pest or weed control at 62 g/ha ([1]; pre-emergence, Preemergence): 70%
- pest or weed control at 125 g/ha ([1]; pre-emergence, Preemergence): 70%
- pest or weed control at 16 g/ha ([2]; post-emergence, Postemergence): 90%
- pest or weed control at 31 g/ha ([2]; post-emergence, Postemergence): 85%
- pest or weed control at 62 g/ha ([2]; post-emergence, Postemergence): 85%
- pest or weed control at 125 g/ha ([2]; post-emergence, Postemergence): 100%
- pest or weed control at 16 g/ha ([2]; pre-emergence, Preemergence): 20%
- pest or weed control at 31 g/ha ([2]; pre-emergence, Preemergence): 60%
- pest or weed control at 62 g/ha ([2]; pre-emergence, Preemergence): 95%
- pest or weed control at 125 g/ha ([2]; pre-emergence, Preemergence): 95%
- pest or weed control at 16 g/ha ([3]; post-emergence, Postemergence): 85%
- pest or weed control at 31 g/ha ([3]; post-emergence, Postemergence): 90%
- pest or weed control at 62 g/ha ([3]; post-emergence, Postemergence): 90%
- pest or weed control at 125 g/ha ([3]; post-emergence, Postemergence): 90%
- pest or weed control at 16 g/ha ([3]; pre-emergence, Preemergence): 90%
- pest or weed control at 31 g/ha ([3]; pre-emergence, Preemergence): 95%
- pest or weed control at 62 g/ha ([3]; pre-emergence, Preemergence): 100%
- pest or weed control at 125 g/ha ([3]; pre-emergence, Preemergence): 100%
- pest or weed control at 16 g/ha ([4]; post-emergence, Postemergence): 20%
- pest or weed control at 31 g/ha ([4]; post-emergence, Postemergence): 35%
- pest or weed control at 62 g/ha ([4]; post-emergence, Postemergence): 55%
- pest or weed control at 125 g/ha ([4]; post-emergence, Postemergence): 55%
- pest or weed control at 16 g/ha ([4]; pre-emergence, Preemergence): 5%
- pest or weed control at 31 g/ha ([4]; pre-emergence, Preemergence): 90%
- pest or weed control at 62 g/ha ([4]; pre-emergence, Preemergence): 90%
- pest or weed control at 125 g/ha ([4]; pre-emergence, Preemergence): 100%
- Plant response rating, Rice, Transplanted ([5]; 32 g ai/ha): 15
- Plant response rating, Rice, Transplanted ([5]; 64 g ai/ha): 30
- Plant response rating, Rice, Transplanted ([5]; 125 g ai/ha): 45
- Plant response rating, Rice, Transplanted ([5]; 250 g ai/ha): 100
- Plant response rating, Watergrass, Late ([6]; 32 g ai/ha): 0
- Plant response rating, Watergrass, Late ([6]; 64 g ai/ha): 30
- Plant response rating, Watergrass, Late ([6]; 125 g ai/ha): 40
- Plant response rating, Watergrass, Late ([6]; 250 g ai/ha): 100
- Plant response rating, Barnyardgrass ([7]; 32 g ai/ha): 30
- Plant response rating, Barnyardgrass ([7]; 64 g ai/ha): 45
- Plant response rating, Barnyardgrass ([7]; 125 g ai/ha): 100
- Plant response rating, Barnyardgrass ([7]; 250 g ai/ha): 100
- Plant response rating, Sedge, Umbrella ([8]; 32 g ai/ha): 0
- Plant response rating, Sedge, Umbrella ([8]; 64 g ai/ha): 98
- Plant response rating, Sedge, Umbrella ([8]; 125 g ai/ha): 100
- Plant response rating, Sedge, Umbrella ([8]; 250 g ai/ha): 100
- Plant response rating, Flatsedge, Rice ([9]; 32 g ai/ha): 100
- Plant response rating, Flatsedge, Rice ([9]; 64 g ai/ha): 100
- Plant response rating, Flatsedge, Rice ([9]; 125 g ai/ha): 100
- Plant response rating, Flatsedge, Rice ([9]; 250 g ai/ha): 100
- Plant response rating, Rice, Water Seeded ([10]; 32 g ai/ha): 60
- Plant response rating, Rice, Water Seeded ([10]; 64 g ai/ha): 70
- Plant response rating, Rice, Water Seeded ([10]; 125 g ai/ha): 100
- Plant response rating, Rice, Water Seeded ([10]; 250 g ai/ha): 100

— US10131652B2, “Pyrimidinyloxy benzene derivatives as herbicides” (E. I. DU PONT DE NEMOURS AND COMPANY, priority 2014, dated 2018)
